Reference: publication PMC12133000 (PLOS One, 2025)
Values joined by “and” are separate entries in the source; they are usually repeats but may differ in a detail not shown here. Equal values may be shown once.

Experiment: Pharmacokinetics of rivaroxaban in rats after avitinib or gefitinib pretreatment
Assay type: in vivo, Sprague–Dawley (SD) rats
Parameters: AUC(0-∞): concentration or dose not given beside the values
Protocol: Eighteen male Sprague–Dawley (SD) rats weighing 300 ± 20 g were provided by the Experimental Animal Center of Wenzhou Medical University (Wenzhou, China) and kept under controlled conditions at a temperature of 23 ± 2 °C, relative humidity of 50 ± 10%, and 12 h light–dark cycle. Eighteen male SD rats were randomly assigned to three groups: avitinib, gefitinib, and control, with six rats per group. Prior to the experiment, the rats were not administered any other medications and fasted for 12 h. The experimental procedures and protocols adhered to Animal Ethics standards and were approved by the Animal Care and Use Committee of Wenzhou Medical University (approval no. wydw2019–650). All rats were anesthetized with sodium pentobarbital (40mg/kg, i.p) to relieve pain. The rats were killed through cervical dislocation.
Prior to the experiment in vivo, the six rats in the avitinib group were administered 30 mg/kg avitinib and 0.5% sodium carboxymethyl cellulose (CMC-Na) solution by gavage daily for 7 d. […] The supernatant was collected and stored at −80 °C. After thawing, 50 μL of plasma was extracted; 100 μL of acetonitrile solution containing midazolam (200 ng/mL) was then added to induce protein precipitation. After vortexing for 30 s and centrifuging at 13,000 rpm for 5 min, the […].
All assays were performed in triplicate, and the results are expressed as mean ± standard deviation. DAS software v. […] SPSS v. 25.0 (IBM, NY, USA) was used for data processing. Student’s t-tests were used to detect differences between groups. Differences with p < 0.05 were considered statistically significant.

[1] = avitinib group, single rats No1-No6, listed as 利伐沙班
[2] = gefitinib group, single rats No1-No6, listed as 利伐沙班

O=C(NC[C@H]1CN(c2ccc(N3CCOCC3=O)cc2)C(=O)O1)c1ccc(Cl)s1 [rivaroxaban, Rivaroxaban]
AUMC(0-t) (avitinib group, Mean): 34198 h*h*ug/L | AUMC(0-∞) (avitinib group, Mean): 40098.5 h*h*ug/L | MRT(0-∞) (avitinib group, Mean): 4.258 h | R_AUC(t/∞) (avitinib group, Mean): 96.35% | VRT(0-t) (avitinib group, Mean): 6.828 h^2 | VRT(0-∞) (avitinib group, Mean): 12.881 h^2 | Vz/F (avitinib group, Mean): 3.719 L/kg | AUC(0-t) [1]: 6581.83 ng·h/mL and 7888.62 ng·h/mL and 9151.91 ng·h/mL and 7417.4 ng·h/mL and 6560.88 ng·h/mL and 16372.3 ng·h/mL | AUC(0-∞) [1]: 6854.37 ng·h/mL and 9138.32 ng·h/mL and 9162.9 ng·h/mL and 7462.9 ng·h/mL and 6602.34 ng·h/mL and 16863.5 ng·h/mL | AUMC(0-t) [1]: 25199.7 h*h*ug/L and 32914.3 h*h*ug/L and 26176.1 h*h*ug/L and 34761 h*h*ug/L and 21050.6 h*h*ug/L and 65086.6 h*h*ug/L | AUMC(0-∞) [1]: 29578.1 h*h*ug/L and 55191.1 h*h*ug/L and 26325.9 h*h*ug/L and 35414.7 h*h*ug/L and 21638.6 h*h*ug/L and 72442.7 h*h*ug/L | CLz/F [1]: 24.32 mL/min/kg and 18.23 mL/min/kg and 18.18 mL/min/kg and 22.3 mL/min/kg and 25.25 mL/min/kg and 9.88 mL/min/kg | Cmax [1]: 1423.2 ng/mL and 1593.7 ng/mL and 2386.3 ng/mL and 1162.7 ng/mL and 1561.2 ng/mL and 2761.8 ng/mL | MRT(0-t) [1]: 4.172 h and 2.86 h and 4.686 h and 3.208 h and 3.975 h | MRT(0-∞) [1]: 4.315 h and 6.04 h and 4.745 h and 3.277 h and 4.296 h | R_AUC(t/∞) [1]: 96% and 86.3% and 99.9% and 99.4% (2×) and 97.1% | VRT(0-t) [1]: 8.179 h^2 and 9.654 h^2 and 3.358 h^2 and 8.878 h^2 and 4.734 h^2 and 6.165 h^2 | VRT(0-∞) [1]: 14.228 h^2 and 34.982 h^2 and 3.496 h^2 and 9.426 h^2 and 5.486 h^2 and 9.666 h^2 | Vz/F [1]: 5.931 L/kg and 6.375 L/kg and 1.763 L/kg and 3.171 L/kg and 3.308 L/kg and 1.765 L/kg | t1/2z [1]: 2.817 h and 4.037 h and 1.12 h and 1.64 h and 1.514 h and 2.062 h | λz [1]: 0.246 h⁻¹ and 0.172 h⁻¹ and 0.619 h⁻¹ and 0.423 h⁻¹ and 0.458 h⁻¹ and 0.336 h⁻¹ | AUMC(0-t) (gefitinib group, Mean): 283625 h*h*ug/L | AUMC(0-∞) (gefitinib group, Mean): 684002 h*h*ug/L | R_AUC(t/∞) (gefitinib group, Mean): 79.633% | VRT(0-t) (gefitinib group, Mean): 8.14 h^2 | VRT(0-∞) (gefitinib group, Mean): 63.366 h^2 | AUC(0-t) [2]: 48396.5 ng·h/mL and 60392.6 ng·h/mL and 53896.5 ng·h/mL and 64214.9 ng·h/mL and 58569.4 ng·h/mL | AUC(0-∞) [2]: 54327.6 ng·h/mL and 62633.7 ng·h/mL and 64818.2 ng·h/mL and 71935.8 ng·h/mL and 93798.8 ng·h/mL | AUMC(0-t) [2]: 349046 h*h*ug/L and 247888 h*h*ug/L and 261964 h*h*ug/L and 270195 h*h*ug/L and 282576 h*h*ug/L and 290080 h*h*ug/L | AUMC(0-∞) [2]: 1493251 h*h*ug/L and 344803 h*h*ug/L and 295419 h*h*ug/L and 469845 h*h*ug/L and 411554 h*h*ug/L and 1089140 h*h*ug/L | Cmax [2]: 6430.2 ng/mL and 11259.7 ng/mL and 7015.4 ng/mL and 10641.7 ng/mL and 7734.1 ng/mL | MRT(0-t) [2]: 5.122 h and 4.338 h and 5.013 h and 4.4 h and 4.953 h | MRT(0-∞) [2]: 13.743 h and 6.347 h and 4.717 h and 7.249 h and 5.721 h and 11.611 h | R_AUC(t/∞) [2]: 57.4% and 89.1% and 96.4% and 83.2% and 89.3% and 62.4% | VRT(0-t) [2]: 10.639 h^2 and 8.135 h^2 and 6.361 h^2 and 8.635 h^2 and 7.676 h^2 and 7.393 h^2 | VRT(0-∞) [2]: 164.942 h^2 and 21.543 h^2 and 10.309 h^2 and 38.485 h^2 and 23.734 h^2 and 121.182 h^2 | Vz/F [2]: 1.173 L/kg and 0.799 L/kg and 0.467 L/kg and 0.969 L/kg and 0.654 L/kg and 1.139 L/kg | t1/2z [2]: 8.833 h and 3.008 h and 2.029 h and 4.352 h and 3.261 h and 7.402 h | λz [2]: 0.078 h⁻¹ and 0.23 h⁻¹ and 0.342 h⁻¹ and 0.159 h⁻¹ and 0.213 h⁻¹ and 0.094 h⁻¹ | concentration at 5 min (male, Sprague-Dawley, rat, plasma, oral, 10 mg/kg, rivaroxaban ng/ml mean, control (rivaroxaban alone) group, mean of rats 13-18, time 0.0833): 158 ng/mL | concentration at 0.25 h (male, Sprague-Dawley, rat, plasma, oral, 10 mg/kg, rivaroxaban ng/ml mean, control (rivaroxaban alone) group, mean of rats 13-18, time 0.25): 259 ng/mL | concentration at 0.5 h (male, Sprague-Dawley, rat, plasma, oral, 10 mg/kg, rivaroxaban ng/ml mean, control (rivaroxaban alone) group, mean of rats 13-18, time 0.5): 397 ng/mL | concentration at 1 h (male, Sprague-Dawley, rat, plasma, oral, 10 mg/kg, rivaroxaban ng/ml mean, control (rivaroxaban alone) group, mean of rats 13-18, time 1): 435 ng/mL | concentration at 2 h (male, Sprague-Dawley, rat, plasma, oral, 10 mg/kg, rivaroxaban ng/ml mean, control (rivaroxaban alone) group, mean of rats 13-18, time 2): 337 ng/mL | concentration at 3 h (male, Sprague-Dawley, rat, plasma, oral, 10 mg/kg, rivaroxaban ng/ml mean, control (rivaroxaban alone) group, mean of rats 13-18, time 3): 291 ng/mL | concentration at 4 h (male, Sprague-Dawley, rat, plasma, oral, 10 mg/kg, rivaroxaban ng/ml mean, control (rivaroxaban alone) group, mean of rats 13-18, time 4): 238 ng/mL
